The values below come from article PMC6222451, “Novel Potent Hypoglycemic Compounds from Euonymus laxiflorus Champ. and Their Effect on Reducing Plasma Glucose in an ICR Mouse Model” (Molecules : A Journal of Synthetic Chemistry and Natural …, 2018).

Data set [1] deals with T1, Saccharomyces cerevisiae (yeast) α-glucosidase (Saccharomyces cerevisiae, UniProt P53341).
T1 construct: purchased Sigma Chemical Co., St. Louis City, MO, USA
The data set is described as follows: α-Glucosidase inhibitory activity determination (pNPG substrate). The class given is biochemical. Particulars: for inhibition at 7.81 µg/mL: read-out: Maximum Inhibition (%), recorded at 7.81 μg/mL. How it is done: The α-glucosidase inhibitory activity was closely detected following the method described in detail by Nguyen et al. (2018). The mixture of 50 μL α-glucosidase, 50 μL sample solutions, 100 μL buffer was pre-incubated at 37 °C for 20 min; the reaction then started when 50 μL of p-nitrophenyl glucopyranoside (10 mmol/L) was added to the mixture. After incubation at the same temperature for 30 min, the reaction was stopped by adding 100 μL Na2CO3 solution (1 mol/L) to the reaction mixture; the absorbance of this final mixture was then measured at 410 nm (A). The control group also underwent the same described method with the use of 50 μL buffer instead of 50 μL sample solutions; the absorbance was recorded at 410 nm (B). The aGI activity (%) was calculated using the following equation: aGI (%) = (A − B)/ A × 100.
The inhibition was also expressed as IC50 value determined as per the previous study. The enzyme and the samples were prepared in 0.1 mol/L potassium phosphate buffer (pH 7). […]

The test system of the next data set is ICR mice. The data set is described as follows: Starch tolerance test: effect on reducing plasma glucose in ICR mice. The format is in vivo, mouse. Particulars: oral. The text has this: Animals: seven week-old male ICR (Institute of Cancer Research) mice were purchased from The National Laboratory Animal Center (No. 128, Sec. 2, Academia Rd., Nangang Dist., Taipei City 11529, Taiwan) and tested in accordance with the approval and guidelines of the Institutional Animal Care and Use Committee of the National Research Institute of Chinese Medicine, Ministry of Health and Welfare (IACUC No. 104-706-1, 29 December 2014). […] Distilled water was used to prepare the condensed tannins and acarbose solutions.
Assay: The effect of condensed tannin-ELCTB-3.1.1 on the reduction of plasma glucose in mice was performed according to the experimental animal protocol described by Nguyen et al. (2017) with the use of starch solution (3 g/kg bw) instead of sucrose solution administered to ICR mice.

The mark [2] stands for this setting: isolated compounds (Table 3), read-out: IC50 (converted).
[3] abbreviates: read-out: Maximum Inhibition (%), recorded at 250 μg/mL.
The mark [4] stands for this setting: read-out: α-glucosidase inhibition, aGI (%), primary test of 26 isolated compounds at 250 µg/mL (Figure 2).
The mark [5] stands for this setting: IC50, isolated compounds (Table 3).

SMILES strings stand for the structures. Read-outs that look alike come from different tables or passages of the source.

T1 sequence (P53341 whole entry): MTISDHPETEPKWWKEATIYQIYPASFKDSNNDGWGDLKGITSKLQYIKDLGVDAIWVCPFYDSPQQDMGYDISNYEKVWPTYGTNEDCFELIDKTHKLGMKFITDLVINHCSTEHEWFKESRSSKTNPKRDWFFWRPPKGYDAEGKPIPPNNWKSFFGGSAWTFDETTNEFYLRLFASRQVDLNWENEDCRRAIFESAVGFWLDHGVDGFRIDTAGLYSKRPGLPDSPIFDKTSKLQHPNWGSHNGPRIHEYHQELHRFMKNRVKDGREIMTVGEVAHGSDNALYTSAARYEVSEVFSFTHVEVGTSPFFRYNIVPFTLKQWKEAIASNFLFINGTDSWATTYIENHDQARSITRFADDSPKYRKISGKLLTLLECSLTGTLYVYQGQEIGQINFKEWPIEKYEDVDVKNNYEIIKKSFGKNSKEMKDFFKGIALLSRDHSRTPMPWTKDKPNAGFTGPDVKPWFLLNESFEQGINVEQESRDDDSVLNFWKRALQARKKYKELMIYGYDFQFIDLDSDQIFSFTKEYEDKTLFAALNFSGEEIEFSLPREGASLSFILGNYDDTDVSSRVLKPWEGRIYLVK

In general, IC50 refers to the point on the concentration scale where inhibition reaches its midpoint. `COc1cc(O)cc(OC)c1O[C@@H]1O[C@H](CO)[C@@H](O)[C@H](O)[C@H]1O` [Compound 14, Leonuriside]: the IC50 in data set [1] (setting [2]) is 2.79 µM. Further, the inhibition at 7.81 µg/mL in data set [1] was found to be 99 ± 6.4%.
Consider `Oc1cc(O)c2c(c1)O[C@H](c1ccc(O)c(O)c1)[C@@H](O)C2` [Compound 19, (+)-Catechin], for which, in data set [1] (setting [2]), the IC50 was 0.389 µM. Further, the inhibition at 0.977 µg/mL in data set [1] (read-out: Maximum Inhibition (%), recorded at 0.977 μg/mL) worked out at 100 ± 5.9%.
With `COc1cc(O[C@@H]2O[C@H](CO)[C@@H](O)[C@H](O)[C@H]2O)cc(OC)c1O` [Compound 9, 1-β-D-glucopyranosyloxy-3,5-dimethoxy-4-hydroxybenzene], the inhibition at 250 µg/mL is no more than 38% in data set [1] (setting [3]) and 38 to 60% in data set [1] (setting [4]).
In data set [1] (setting [5]), `Oc1cc(O)c2c(c1)O[C@@H](c1cc(O)c(O)c(O)c1)[C@H](O)C2` [Compound 10, (−)-Gallocatechin] showed an IC50 of 38.9 µM. Also, in data set [1] (setting [3]), the inhibition at 250 µg/mL came out at 93 ± 2.9%.
`CC(C)=CC(=O)O[C@@H]1[C@H](O)[C@H](O)[C@@H](O)[C@H](O)[C@H]1O` [Compound 12, 1-O-(3-methyl)-butenoyl-myo-inositol]: the IC50 in data set [1] (setting [2]) is 103 µM. Further, the inhibition at 250 µg/mL in data set [1] (setting [3]) came to 96 ± 6.9%.
In turn, `COC(=O)c1cc(O)c(O)c(O)c1` [Compound 20, Methyl galloate] gave an IC50 in data set [1] (setting [5]) of 597 µM. Besides, the inhibition at 250 µg/mL in data set [1] (setting [3]) is 58 ± 1.2%.
`O=C(c1ccc(O)cc1)C(O)CO[C@@H]1O[C@H](CO)[C@@H](O)[C@H](O)[C@H]1O` (stereo partly drawn) [Compound 11, Schweinfurthinol 9-O-β-D-pyranoglucoside] gave a half-maximal inhibitory concentration (IC50) in data set [1] of 91.8 µM. The inhibition at 250 µg/mL in data set [1] (setting [3]) was 87 ± 4%; in data set [1] (setting [4]), 90 to 100%.
For the compound `Oc1cc(O)c2c(c1)O[C@@H](c1ccc(O)c(O)c1)[C@H](O)C2` [Compound 23, (−)-Catechin], in data set [1] (setting [3]), the inhibition at 250 µg/mL was no more than 38%.
For the compound `C[C@H]1O[C@H](O[C@H]2[C@H](O)[C@@H](O)[C@@H](O[C@H]3[C@H](O)[C@@H](O)C(O)O[C@@H]3CO)O[C@@H]2CO)[C@H](O)[C@@H](O)[C@@H]1N[C@H]1C=C(CO)[C@@H](O)[C@H](O)[C@H]1O` (stereo partly shown) [Acarbose, reference compound], the figures for the “mice with symptoms of diarrhea” value in the data set on ICR mice (acarbose 25 mg/kg bw) and in the data set on ICR mice (acarbose 50 mg/kg bw) were 20% and 50%, respectively. Also, the inhibition at 2500 µg/mL in data set [1] (read-out: Maximum Inhibition (%), acarbose, recorded at 2500 μg/mL (Table 3)) amounted to 65 ± 2.7%; in data set [1] (read-out: α-Glucosidase Inhibitory Activity Inhibition (%), yeast α-glucosidase, acarbose tested at 2500 μg/mL (Table 2)), 64 ± 2.4%.
As for `CC1=CC(=O)OCC1O[C@@H]1O[C@H](CO)[C@@H](O)[C@H](O)[C@H]1O` (stereo partly drawn) [Compound 1, Walterolactone A/B β-D-pyranoglucoside], in data set [1], the IC50 is 3.12 µM and the inhibition at 7.81 µg/mL came out at 100 ± 5.8%.
